Patent publication US20100316732A1, “BEVERAGE COMPOSITIONS FOR THE PROMOTION OF JOINT HEALTH IN COMPANION ANIMALS” (priority 2008, published 2010)

Experiment: Maximum solubility per liter of the active ingredients
Format: physicochemical
Conditions: active ingredient of aqueous canine water formula

Maximum Solubility/Liter: 1100 µg/mL
SMILES: [Cl-].[Cl-].[Mg+2] [Magnium chloride]
